Each structure is given as a SMILES string.

The target in test [1] is T1, Cholecystokinin receptor type A (Rattus norvegicus, UniProt P30551).
T1 sequence (P30551 whole entry): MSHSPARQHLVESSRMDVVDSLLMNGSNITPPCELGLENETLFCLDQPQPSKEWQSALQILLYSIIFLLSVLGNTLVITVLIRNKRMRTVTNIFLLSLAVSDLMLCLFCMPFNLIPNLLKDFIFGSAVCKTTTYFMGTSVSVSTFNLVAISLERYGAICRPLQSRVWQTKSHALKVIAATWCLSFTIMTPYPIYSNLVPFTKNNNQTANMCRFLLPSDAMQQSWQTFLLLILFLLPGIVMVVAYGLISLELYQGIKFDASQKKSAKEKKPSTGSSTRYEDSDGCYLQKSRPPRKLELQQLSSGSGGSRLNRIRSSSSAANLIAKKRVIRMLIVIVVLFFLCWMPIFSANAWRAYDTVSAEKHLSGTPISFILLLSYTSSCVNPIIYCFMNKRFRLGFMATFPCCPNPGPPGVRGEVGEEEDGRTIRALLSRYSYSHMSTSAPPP
In words: The compound was tested for its activity to inhibit the binding of [3H]-L-364,718 to Cholecystokinin type A receptor in rat pancreas.

The target in test [2] is T2, Gastrin/cholecystokinin type B receptor (Mus musculus, UniProt P56481).
T2 sequence (P56481 whole entry): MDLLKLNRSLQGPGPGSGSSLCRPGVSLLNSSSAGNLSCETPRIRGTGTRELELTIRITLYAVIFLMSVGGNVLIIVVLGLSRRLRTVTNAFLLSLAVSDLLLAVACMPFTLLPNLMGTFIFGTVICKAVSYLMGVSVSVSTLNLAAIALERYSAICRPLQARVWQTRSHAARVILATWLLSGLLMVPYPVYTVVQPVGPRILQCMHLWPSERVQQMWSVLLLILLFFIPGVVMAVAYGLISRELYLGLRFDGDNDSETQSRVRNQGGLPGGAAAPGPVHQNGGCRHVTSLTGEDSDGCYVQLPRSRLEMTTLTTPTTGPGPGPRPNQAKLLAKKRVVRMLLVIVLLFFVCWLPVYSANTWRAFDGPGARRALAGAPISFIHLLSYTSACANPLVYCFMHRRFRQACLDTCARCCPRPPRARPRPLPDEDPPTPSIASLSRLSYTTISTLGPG
Nature of the test: The compound was tested for its activity to inhibit the binding of [125I]CCK-8 to Cholecystokinin type B receptor in mouse brain at a pH of 6.5. Type of test: tissue-based.

The target in test [3] is T1, Cholecystokinin receptor type A. Nature of the test: The compound was tested for its activity to inhibit the binding of [125I]CCK-8 to Cholecystokinin type A receptor in rat pancreas.
The target in test [4] is T2, Gastrin/cholecystokinin type B receptor. Nature of the test: The compound was tested for its activity to inhibit the binding of [125I]CCK-8 to Cholecystokinin type B receptor in mouse brain at a pH of 7.4. Type of test: tissue-based.

In the case of `O=C1NN(C(=O)Nc2ccc(Br)cc2)C(c2ccccc2)C1c1ccccc1` (centres undefined), the results for the IC50 in test [1] and in test [2] were 11600 nM and 31 nM, respectively. Consider `CN1C(=O)[C@@H](NC(=O)c2ccc(Cl)cc2)N=C(c2ccccc2)c2ccccc21`, for which, in test [3], the IC50 (usually the midpoint of a concentration-inhibition curve) turned out to be 0.39 nM. As for `O=C1NN(C(=S)Nc2ccc(Cl)c(C(F)(F)F)c2)[C@H](c2ccccc2)[C@H]1c1ccccc1`, the IC50 in test [1] came to 17 nM; in test [4], 1900 nM.

As for `O=C1NN(C(=S)Nc2ccc(Cl)c(C(F)(F)F)c2)C(c2ccccc2)C1c1ccccc1` (centres undefined), the IC50 in test [1] came to 42 nM; in test [4], 880 nM. With `CN1C(=O)[C@H](NC(=O)c2ccc(Cl)cc2)N=C(c2ccccc2)c2ccccc21`, the IC50 in test [3] is 2.9 nM. As for `O=C1NN(C(=S)Nc2ccc(Cl)c(C(F)(F)F)c2)[C@@H](c2ccccc2)[C@@H]1c1ccccc1`, the IC50 is 810 nM in test [1] and 550 nM in test [4]. As for `O=C1NN(C(=O)Nc2ccc(Br)cc2)[C@@H](c2ccccc2)[C@@H]1c1ccccc1`, the IC50 in test [1] was 20500 nM; in test [2] it was 19 nM. `O=C1NN(C(=O)Nc2ccc(Br)cc2)[C@H](c2ccccc2)[C@H]1c1ccccc1`: the figures for the IC50 in test [1] and in test [2] were 6400 nM and 370 nM, respectively.

(Values after ChEMBL document CHEMBL1153257, “Diphenylpyrazolidinone and benzodiazepine cholecystokinin antagonists: A case of convergent evolution in medicinal chemistry” (Bioorg Med Chem Lett, 1993).)
